Data reported in EP0103895A2, “Novel hydroxylamine derivatives, production and use thereof” (MEIJI SEIKA KABUSHIKI KAISHA, priority 1982, dated 1984).

Test system: Liver fluke; Fasciola hepatica (F. hepatica)
Assay: Test of anthelmintic effect against rat infected experimentally with liver fluke (Test Examples A11, B11, C11, D11)
Format: in vivo

## C=CCN(OC)C(C)=O [Compound B1, N-allyl-N-acetyl-O-methylhydroxylamine]
rat, 50 mg/Kg x 5
  Condition of fluke body: dead
  Presence or absence of fluke egg in fecal matter On 21st day after the last administration: -
rats, five administrations in a dose of 50 mg/Kg each
  anthelmintic effect: marked antihelmintic effect
